Results as given in ChEMBL document CHEMBL4673346, “Discovery of a benzimidazole series as the first highly potent and selective ACSL1 inhibitors” (Bioorg Med Chem Lett, 2021).
≈ marks a conversion by molar mass, not a printed value.

Tests used:
[1] = Fraction unbound in rat plasma; assay type: ADME, cell-free
Cytochrome P450 1A2 = biological target: T1, Cytochrome P450 1A2 (Homo sapiens, UniProt P05177); assay: Inhibition of CYP1A2 (unknown origin); assay type: ADME
T1 sequence (P05177 whole entry): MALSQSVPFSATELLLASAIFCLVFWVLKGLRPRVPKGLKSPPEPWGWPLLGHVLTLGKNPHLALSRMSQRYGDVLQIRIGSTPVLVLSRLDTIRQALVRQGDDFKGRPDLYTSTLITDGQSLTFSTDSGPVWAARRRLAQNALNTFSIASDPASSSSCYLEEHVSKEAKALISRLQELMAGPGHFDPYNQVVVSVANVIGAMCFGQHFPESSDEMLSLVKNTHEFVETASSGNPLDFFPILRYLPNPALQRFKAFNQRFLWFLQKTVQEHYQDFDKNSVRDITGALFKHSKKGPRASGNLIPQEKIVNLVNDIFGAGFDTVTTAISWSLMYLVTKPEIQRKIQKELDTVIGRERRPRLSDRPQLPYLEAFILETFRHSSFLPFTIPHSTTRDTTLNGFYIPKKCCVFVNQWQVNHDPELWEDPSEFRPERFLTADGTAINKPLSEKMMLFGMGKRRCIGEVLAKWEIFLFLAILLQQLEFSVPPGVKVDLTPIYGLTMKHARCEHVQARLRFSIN

[2] = biological target: T2, Long-chain-fatty-acid--CoA ligase 6 (Homo sapiens, UniProt Q9UKU0); assay: Inhibition of recombinant human ACSL6 assessed as reduction in […] prodution incubated for 60 mins in presence of Coenzyme A, ATP and MgCl2 by MALDI-TOF MS analysis
T2 sequence (Q9UKU0 whole entry): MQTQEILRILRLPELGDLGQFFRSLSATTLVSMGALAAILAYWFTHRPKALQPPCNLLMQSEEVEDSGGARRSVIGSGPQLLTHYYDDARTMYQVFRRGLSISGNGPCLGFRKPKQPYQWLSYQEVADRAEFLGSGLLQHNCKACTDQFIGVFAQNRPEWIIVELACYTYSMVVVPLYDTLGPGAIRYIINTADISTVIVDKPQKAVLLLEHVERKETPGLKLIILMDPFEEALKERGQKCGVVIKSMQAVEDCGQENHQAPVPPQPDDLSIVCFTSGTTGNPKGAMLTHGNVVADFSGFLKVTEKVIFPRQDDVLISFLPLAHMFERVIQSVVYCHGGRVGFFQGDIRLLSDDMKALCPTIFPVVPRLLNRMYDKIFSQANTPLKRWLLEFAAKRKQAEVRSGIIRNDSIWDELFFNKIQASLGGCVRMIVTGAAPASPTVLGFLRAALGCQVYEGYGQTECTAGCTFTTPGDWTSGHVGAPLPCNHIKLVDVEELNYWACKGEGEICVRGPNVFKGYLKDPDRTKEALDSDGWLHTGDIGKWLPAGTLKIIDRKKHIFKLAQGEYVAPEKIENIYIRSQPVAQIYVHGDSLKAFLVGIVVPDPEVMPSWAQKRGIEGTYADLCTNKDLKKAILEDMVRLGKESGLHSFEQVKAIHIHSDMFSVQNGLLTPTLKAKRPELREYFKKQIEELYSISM

[3] = biological target: T3, Long-chain-fatty-acid--CoA ligase 1 (Homo sapiens, UniProt P33121); assay: Inhibition of recombinant human ACSL1 assessed as reduction in […] prodution incubated for 90 mins in presence of Coenzyme A, ATP and MgCl2 by MALDI-TOF MS analysis
T3 sequence (P33121 whole entry): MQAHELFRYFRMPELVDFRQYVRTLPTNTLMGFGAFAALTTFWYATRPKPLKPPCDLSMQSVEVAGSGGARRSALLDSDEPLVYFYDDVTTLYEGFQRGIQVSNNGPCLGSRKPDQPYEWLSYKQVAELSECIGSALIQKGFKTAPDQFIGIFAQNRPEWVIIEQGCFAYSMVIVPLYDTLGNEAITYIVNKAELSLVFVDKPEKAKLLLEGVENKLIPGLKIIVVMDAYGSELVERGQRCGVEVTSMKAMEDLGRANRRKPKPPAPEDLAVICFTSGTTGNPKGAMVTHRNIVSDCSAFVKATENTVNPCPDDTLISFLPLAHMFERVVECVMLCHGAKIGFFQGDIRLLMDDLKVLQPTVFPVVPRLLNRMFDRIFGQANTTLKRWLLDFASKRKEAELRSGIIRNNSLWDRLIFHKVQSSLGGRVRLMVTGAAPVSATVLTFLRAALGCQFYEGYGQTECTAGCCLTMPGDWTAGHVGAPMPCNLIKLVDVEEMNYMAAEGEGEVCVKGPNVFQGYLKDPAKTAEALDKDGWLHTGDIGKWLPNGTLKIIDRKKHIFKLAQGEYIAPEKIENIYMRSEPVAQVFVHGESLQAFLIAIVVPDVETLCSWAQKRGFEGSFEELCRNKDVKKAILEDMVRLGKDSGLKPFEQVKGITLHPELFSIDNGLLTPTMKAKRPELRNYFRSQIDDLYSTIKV

[4] = Volume of distribution at steady state in rat at 0.5 mg/kg, iv; assay type: ADME, organism-based; conditions: in vivo, read-out: Vdss
[5] = Cmax in rat at 1 mg/kg, po; assay type: ADME, organism-based; design: route oral, dose 1 mg/kg; conditions: in vivo
Mus musculus [6] = assay: In vivo inhibition of ACSL1 in mouse assessed as reduction in acyl-coA production in liver administered orally using oleic acid as substrate and measured after 17 hrs; assay type: functional, organism-based
Cytochrome P450 2C19 = Cytochrome P450 2C19 (Homo sapiens, UniProt P33261); assay: Inhibition of CYP2C19 (unknown origin); assay type: ADME
Cytochrome P450 2D6 = Cytochrome P450 2D6 (Homo sapiens, UniProt P10635); assay: Inhibition of CYP2D6 (unknown origin); assay type: ADME
Mus musculus [7] = assay: In vivo inhibition of ACSL1 in mouse assessed as reduction in acyl-coA production in liver administered orally using palmitoleic acid as substrate and measured after 17 hrs; assay type: functional, organism-based; conditions: dose 0.3-1 mg/kg
[8] = AUC in rat at 0.5 mg/kg, iv; assay type: ADME, organism-based; design: dose 0.5 mg/kg; conditions: in vivo
[9] = Solubility of compound in pH 1.2; assay type: physicochemical; conditions: buffer
[10] = Half life in rat at 0.5 mg/kg, iv; assay type: ADME, organism-based; conditions: in vivo
[11] = AUC in rat at 1 mg/kg, po; assay type: ADME, organism-based; design: dose 1 mg/kg; conditions: in vivo

Cytochrome P450 2D6, sequence (P10635 whole entry): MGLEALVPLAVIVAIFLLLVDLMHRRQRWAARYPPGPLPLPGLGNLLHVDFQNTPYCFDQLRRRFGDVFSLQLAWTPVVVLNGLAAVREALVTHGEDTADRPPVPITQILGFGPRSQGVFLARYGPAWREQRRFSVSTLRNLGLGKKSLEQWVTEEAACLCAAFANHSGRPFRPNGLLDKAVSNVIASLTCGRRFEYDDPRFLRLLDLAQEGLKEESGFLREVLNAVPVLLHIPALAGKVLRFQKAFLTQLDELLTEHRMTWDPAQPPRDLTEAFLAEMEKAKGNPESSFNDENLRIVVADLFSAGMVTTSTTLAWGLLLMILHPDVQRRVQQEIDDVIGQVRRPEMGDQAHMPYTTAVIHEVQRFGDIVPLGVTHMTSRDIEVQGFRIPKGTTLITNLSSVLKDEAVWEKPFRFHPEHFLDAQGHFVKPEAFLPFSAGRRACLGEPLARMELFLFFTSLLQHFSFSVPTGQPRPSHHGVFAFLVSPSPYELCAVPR
Cytochrome P450 2C19, sequence (P33261 whole entry): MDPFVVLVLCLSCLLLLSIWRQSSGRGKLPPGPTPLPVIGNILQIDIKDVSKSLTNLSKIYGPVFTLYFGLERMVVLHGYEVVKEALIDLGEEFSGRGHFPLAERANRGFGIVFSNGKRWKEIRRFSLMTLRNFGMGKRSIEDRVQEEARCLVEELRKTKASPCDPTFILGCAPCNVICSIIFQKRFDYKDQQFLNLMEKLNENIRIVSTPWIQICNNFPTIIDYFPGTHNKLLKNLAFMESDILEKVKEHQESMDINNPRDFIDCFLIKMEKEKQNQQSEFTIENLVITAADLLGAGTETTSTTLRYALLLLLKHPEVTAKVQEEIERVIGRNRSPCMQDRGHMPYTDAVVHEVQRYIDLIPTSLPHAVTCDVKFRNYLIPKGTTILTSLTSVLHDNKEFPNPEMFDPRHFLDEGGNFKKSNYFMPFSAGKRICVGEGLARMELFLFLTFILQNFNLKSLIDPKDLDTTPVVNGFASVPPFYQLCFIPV

fraction unbound [1]: 0.017
IC50 (Cytochrome P450 1A2): > 20 µM
IC50 [2]: > 200 µM
IC50 [3]: 0.042 µM
Vd [4]: 0.38 L/kg
Cmax [5]: 1110 ng/mL
IC50 (Cytochrome P450 2C19): > 20 µM
IC50 (Cytochrome P450 2D6): > 20 µM
AUC [8]: 4970 ng·h/mL
solubility [9]: 307 µg/mL (≈ 811 µM)
half-life [10]: 2.8 h
AUC [11]: 11800 ng·h/mL
Compound: Cc1cccc(Cc2nc3cc(O[C@H]4CC[C@@H](C(=O)O)CC4)ccc3n2C)c1
inhibition (Mus musculus [6]): Dose-dependent effect
inhibition (Mus musculus [7]): Dose-dependent effect
